From patent US20020002171A1, “Materials and methods for killing nematodes and nematode eggs” (priority 2000, published 2002)

These compounds were tested on Caenorhabditis elegans (assay: C. elegans L1 nematicidal dose response in 96-well plates, 5 day visual score (Example 2; same procedure for Example 7, Table 3)). Conditions: Follow-up HTS run.
Type: in vivo
Parameters: key to 5 Day Visual Score V1 / 5 Day Visual Score V2 / 5 Day Visual Score V3 / 5 Day Visual Score V4 / 5 Day Visual Score V6 / 5 Day Visual Score V5 / Initial HTS Run Visual Score / Follow-up HTS Run Visual Score: Dead: only stiff L1s (no movement); Dead (L4): worms are dead, but at a later larval stage; majority of worms are L1 (based on size) worms move when plate is tapped; majority of worms are L2 (based on size); majority of worms are L3 (based on size); majority of worms are L4 (based on size); AD: majority of worms are adult; #AD: 5 adult worms or less; B!: sterile (0-25 progeny); B: low broodsize (25-100 progeny); ˜B: moderate broodsize (100-250 progeny); <: reduced broodsize (250-500 progeny); OK: no effect (˜1000+ progeny)
In short: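 L1 larvae, 20 per well in NGM with 1% E. coli HB101 and antibiotic/antimycotic, exposed to six 3-fold dilutions from 70 μM down to 0.3 μM (1.4% DMSO at top). Held at 20° C; viability scored visually under 100× dissecting microscope on day 5.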

SMILES | Follow-up HTS Run % Run | Follow-up HTS Run Visual Score | Follow-up HTS Run mOD
CC1CC(C)CN(c2nc(NCc3ccc(C(F)(F)F)cc3)ns2)C1 (stereo not shown) [compound 248] | 112% | L3/L4/AD/B! | 181 mOD
CCOC(=O)CCN(Cc1ccccc1)c1nc(NCCC(c2ccccc2)c2ccccc2)ns1 [compound 290] | 99% | L4/AD/B | 159 mOD
Cc1cccc(C)c1N1CCN(c2nsc(N3CCN(c4c(C)cccc4C)CC3)n2)CC1 [compound 227] | 91% | Dead | 146 mOD
FC(F)(F)c1ccc(CNc2nsc(N3CCN(c4cccc(C(F)(F)F)c4)CC3)n2)cc1 [compound 250] | 125% | – | 201 mOD
CCCCCCCCCCCCCCCCCCN(C)c1nc(NCCC(c2ccccc2)c2ccccc2)ns1 [compound 288] | 82% | L4/AD/B! | 132 mOD
CCCCCCCCCCNc1nsc(N(C)CCc2ccccc2)n1 [compound 283] | 120% | Dead | 193 mOD
CCCN(CC1CC1)c1nc(NCc2ccccc2C(F)(F)F)ns1 [compound 260] | 147% | L2 | 236 mOD
CN(Cc1ccccc1)c1nc(NC2CCCCCCCCCCC2)ns1 [compound 336] | 90% | – | 145 mOD
C=CCN(CC=C)c1nc(NCc2c(F)cccc2F)ns1 [compound 300] | 108% | L4/AD/B! | 174 mOD

Same assay, conditions: Initial HTS run

SMILES | Initial HTS Run % Run | Initial HTS Run Visual Score | Initial HTS Run mOD
CC1CC(C)CN(c2nc(NCc3ccc(C(F)(F)F)cc3)ns2)C1 (stereo not shown) [compound 248] | 99% | L3/L4/AD/B | 109 mOD
CCOC(=O)CCN(Cc1ccccc1)c1nc(NCCC(c2ccccc2)c2ccccc2)ns1 [compound 290] | 101% | L4/AD/B | 111 mOD
Cc1cccc(C)c1N1CCN(c2nsc(N3CCN(c4c(C)cccc4C)CC3)n2)CC1 [compound 227] | 107% | Dead | 118 mOD
FC(F)(F)c1ccc(CNc2nsc(N3CCN(c4cccc(C(F)(F)F)c4)CC3)n2)cc1 [compound 250] | 108% | L2 - (Dead L3) | 119 mOD
CCCCCCCCCCCCCCCCCCN(C)c1nc(NCCC(c2ccccc2)c2ccccc2)ns1 [compound 288] | 105% | L3/L4/1AD/B | 116 mOD
CCCCCCCCCCNc1nsc(N(C)CCc2ccccc2)n1 [compound 283] | 131% | Dead | 144 mOD
CCCN(CC1CC1)c1nc(NCc2ccccc2C(F)(F)F)ns1 [compound 260] | 122% | L2 (Dead L3) | 134 mOD
CN(Cc1ccccc1)c1nc(NC2CCCCCCCCCCC2)ns1 [compound 336] | 97% | Dead/1AD/B! | 107 mOD
C=CCN(CC=C)c1nc(NCc2c(F)cccc2F)ns1 [compound 300] | 108% | – | 119 mOD

Same assay, conditions: dose response, dilution V1, 5 day

SMILES | 5 Day Visual Score V1
CN(Cc1ccccc1)c1nc(NC2CCCCCCCCCCC2)ns1 [compound 336] | Dead

Same assay, conditions: dose response, dilution V1, day 5

SMILES | 5 Day Visual Score V1
CCOC(=O)CCN(Cc1ccccc1)c1nc(NCCC(c2ccccc2)c2ccccc2)ns1 [compound 290] | Dead
Cc1cccc(C)c1N1CCN(c2nsc(N3CCN(c4c(C)cccc4C)CC3)n2)CC1 [compound 227] | Dead
FC(F)(F)c1ccc(CNc2nsc(N3CCN(c4cccc(C(F)(F)F)c4)CC3)n2)cc1 [compound 250] | L3/Dead(L3)
CCCCCCCCCCCCCCCCCCN(C)c1nc(NCCC(c2ccccc2)c2ccccc2)ns1 [compound 288] | L1
CCCCCCCCCCNc1nsc(N(C)CCc2ccccc2)n1 [compound 283] | Dead
CCCN(CC1CC1)c1nc(NCc2ccccc2C(F)(F)F)ns1 [compound 260] | L1
C=CCN(CC=C)c1nc(NCc2c(F)cccc2F)ns1 [compound 300] | Dead(L2/L3)

Same assay, conditions: dose response, dilution V2, 5 day

SMILES | 5 Day Visual Score V2
CN(Cc1ccccc1)c1nc(NC2CCCCCCCCCCC2)ns1 [compound 336] | Dead

Same assay, conditions: dose response, dilution V2, day 5

SMILES | 5 Day Visual Score V2
CC1CC(C)CN(c2nc(NCc3ccc(C(F)(F)F)cc3)ns2)C1 (stereo not shown) [compound 248] | ˜B (moderate broodsize (100-250 progeny))
Cc1cccc(C)c1N1CCN(c2nsc(N3CCN(c4c(C)cccc4C)CC3)n2)CC1 [compound 227] | Dead
FC(F)(F)c1ccc(CNc2nsc(N3CCN(c4cccc(C(F)(F)F)c4)CC3)n2)cc1 [compound 250] | L4/#AD/B!
CCCCCCCCCCCCCCCCCCN(C)c1nc(NCCC(c2ccccc2)c2ccccc2)ns1 [compound 288] | B (low broodsize (25-100 progeny))
CCCCCCCCCCNc1nsc(N(C)CCc2ccccc2)n1 [compound 283] | Dead
CCCN(CC1CC1)c1nc(NCc2ccccc2C(F)(F)F)ns1 [compound 260] | B (low broodsize (25-100 progeny))

Same assay, conditions: dose response, dilution V3, day 5

SMILES | 5 Day Visual Score V3
CC1CC(C)CN(c2nc(NCc3ccc(C(F)(F)F)cc3)ns2)C1 (stereo not shown) [compound 248] | < (reduced broodsize (250-500 progeny))
CCOC(=O)CCN(Cc1ccccc1)c1nc(NCCC(c2ccccc2)c2ccccc2)ns1 [compound 290] | OK (no effect (˜1000+ progeny))
Cc1cccc(C)c1N1CCN(c2nsc(N3CCN(c4c(C)cccc4C)CC3)n2)CC1 [compound 227] | OK (no effect (˜1000+ progeny))
FC(F)(F)c1ccc(CNc2nsc(N3CCN(c4cccc(C(F)(F)F)c4)CC3)n2)cc1 [compound 250] | B (low broodsize (25-100 progeny))
CCCCCCCCCCCCCCCCCCN(C)c1nc(NCCC(c2ccccc2)c2ccccc2)ns1 [compound 288] | OK (no effect (˜1000+ progeny))
CCCN(CC1CC1)c1nc(NCc2ccccc2C(F)(F)F)ns1 [compound 260] | OK (no effect (˜1000+ progeny))
C=CCN(CC=C)c1nc(NCc2c(F)cccc2F)ns1 [compound 300] | < (reduced broodsize (250-500 progeny))

Same assay, conditions: dose response, dilution V4, 5 day

SMILES | 5 Day Visual Score V4
CN(Cc1ccccc1)c1nc(NC2CCCCCCCCCCC2)ns1 [compound 336] | OK (no effect (˜1000+ progeny))

Same assay, conditions: dose response, dilution V4, day 5

SMILES | 5 Day Visual Score V4
CC1CC(C)CN(c2nc(NCc3ccc(C(F)(F)F)cc3)ns2)C1 (stereo not shown) [compound 248] | OK (no effect (˜1000+ progeny))
CCOC(=O)CCN(Cc1ccccc1)c1nc(NCCC(c2ccccc2)c2ccccc2)ns1 [compound 290] | OK (no effect (˜1000+ progeny))
Cc1cccc(C)c1N1CCN(c2nsc(N3CCN(c4c(C)cccc4C)CC3)n2)CC1 [compound 227] | OK (no effect (˜1000+ progeny))
FC(F)(F)c1ccc(CNc2nsc(N3CCN(c4cccc(C(F)(F)F)c4)CC3)n2)cc1 [compound 250] | OK (no effect (˜1000+ progeny))
CCCCCCCCCCCCCCCCCCN(C)c1nc(NCCC(c2ccccc2)c2ccccc2)ns1 [compound 288] | OK (no effect (˜1000+ progeny))
CCCCCCCCCCNc1nsc(N(C)CCc2ccccc2)n1 [compound 283] | OK (no effect (˜1000+ progeny))
CCCN(CC1CC1)c1nc(NCc2ccccc2C(F)(F)F)ns1 [compound 260] | OK (no effect (˜1000+ progeny))
C=CCN(CC=C)c1nc(NCc2c(F)cccc2F)ns1 [compound 300] | OK (no effect (˜1000+ progeny))

Same assay, conditions: dose response, dilution V5, 5 day

SMILES | 5 Day Visual Score V5
CN(Cc1ccccc1)c1nc(NC2CCCCCCCCCCC2)ns1 [compound 336] | OK (no effect (˜1000+ progeny))

Same assay, conditions: dose response, dilution V5, day 5

SMILES | 5 Day Visual Score V5
CC1CC(C)CN(c2nc(NCc3ccc(C(F)(F)F)cc3)ns2)C1 (stereo not shown) [compound 248] | OK (no effect (˜1000+ progeny))
CCOC(=O)CCN(Cc1ccccc1)c1nc(NCCC(c2ccccc2)c2ccccc2)ns1 [compound 290] | OK (no effect (˜1000+ progeny))
Cc1cccc(C)c1N1CCN(c2nsc(N3CCN(c4c(C)cccc4C)CC3)n2)CC1 [compound 227] | OK (no effect (˜1000+ progeny))
FC(F)(F)c1ccc(CNc2nsc(N3CCN(c4cccc(C(F)(F)F)c4)CC3)n2)cc1 [compound 250] | OK (no effect (˜1000+ progeny))
CCCCCCCCCCCCCCCCCCN(C)c1nc(NCCC(c2ccccc2)c2ccccc2)ns1 [compound 288] | OK (no effect (˜1000+ progeny))
CCCCCCCCCCNc1nsc(N(C)CCc2ccccc2)n1 [compound 283] | OK (no effect (˜1000+ progeny))
CCCN(CC1CC1)c1nc(NCc2ccccc2C(F)(F)F)ns1 [compound 260] | OK (no effect (˜1000+ progeny))
C=CCN(CC=C)c1nc(NCc2c(F)cccc2F)ns1 [compound 300] | OK (no effect (˜1000+ progeny))

Same assay, conditions: dose response, dilution V6, 5 day

SMILES | 5 Day Visual Score V6
CN(Cc1ccccc1)c1nc(NC2CCCCCCCCCCC2)ns1 [compound 336] | OK (no effect (˜1000+ progeny))

Same assay, conditions: dose response, dilution V6, day 5

SMILES | 5 Day Visual Score V6
CC1CC(C)CN(c2nc(NCc3ccc(C(F)(F)F)cc3)ns2)C1 (stereo not shown) [compound 248] | OK (no effect (˜1000+ progeny))
CCOC(=O)CCN(Cc1ccccc1)c1nc(NCCC(c2ccccc2)c2ccccc2)ns1 [compound 290] | OK (no effect (˜1000+ progeny))
Cc1cccc(C)c1N1CCN(c2nsc(N3CCN(c4c(C)cccc4C)CC3)n2)CC1 [compound 227] | OK (no effect (˜1000+ progeny))
FC(F)(F)c1ccc(CNc2nsc(N3CCN(c4cccc(C(F)(F)F)c4)CC3)n2)cc1 [compound 250] | OK (no effect (˜1000+ progeny))
CCCCCCCCCCCCCCCCCCN(C)c1nc(NCCC(c2ccccc2)c2ccccc2)ns1 [compound 288] | OK (no effect (˜1000+ progeny))
CCCCCCCCCCNc1nsc(N(C)CCc2ccccc2)n1 [compound 283] | OK (no effect (˜1000+ progeny))
CCCN(CC1CC1)c1nc(NCc2ccccc2C(F)(F)F)ns1 [compound 260] | OK (no effect (˜1000+ progeny))
C=CCN(CC=C)c1nc(NCc2c(F)cccc2F)ns1 [compound 300] | OK (no effect (˜1000+ progeny))
